Data reported in patent publication US9155714B2, “Compositions comprising an aromatic alcohol and a TRPV-1 antagonist, and uses thereof” (JOHNSON & JOHNSON CONSUMER INC., priority 2013, dated 2015).
Several values for one entry are separate records, joined by “and”; a condition that tells them apart may be missing. Identical values can stand only once.

Tests used:
Test in all cases: Calcium Flux Test, activity as TRPV-1 agonist
Format in all cases: cell-based
[1] = molecular target: T1, human vanilloid receptor-1 (TRPV-1) (Homo sapiens, UniProt Q8NER1); design: key: **: Statistically significant; n/s: Not statistically significant
T1 construct: host or cells: HEK293
T1 sequence (Q8NER1 whole entry): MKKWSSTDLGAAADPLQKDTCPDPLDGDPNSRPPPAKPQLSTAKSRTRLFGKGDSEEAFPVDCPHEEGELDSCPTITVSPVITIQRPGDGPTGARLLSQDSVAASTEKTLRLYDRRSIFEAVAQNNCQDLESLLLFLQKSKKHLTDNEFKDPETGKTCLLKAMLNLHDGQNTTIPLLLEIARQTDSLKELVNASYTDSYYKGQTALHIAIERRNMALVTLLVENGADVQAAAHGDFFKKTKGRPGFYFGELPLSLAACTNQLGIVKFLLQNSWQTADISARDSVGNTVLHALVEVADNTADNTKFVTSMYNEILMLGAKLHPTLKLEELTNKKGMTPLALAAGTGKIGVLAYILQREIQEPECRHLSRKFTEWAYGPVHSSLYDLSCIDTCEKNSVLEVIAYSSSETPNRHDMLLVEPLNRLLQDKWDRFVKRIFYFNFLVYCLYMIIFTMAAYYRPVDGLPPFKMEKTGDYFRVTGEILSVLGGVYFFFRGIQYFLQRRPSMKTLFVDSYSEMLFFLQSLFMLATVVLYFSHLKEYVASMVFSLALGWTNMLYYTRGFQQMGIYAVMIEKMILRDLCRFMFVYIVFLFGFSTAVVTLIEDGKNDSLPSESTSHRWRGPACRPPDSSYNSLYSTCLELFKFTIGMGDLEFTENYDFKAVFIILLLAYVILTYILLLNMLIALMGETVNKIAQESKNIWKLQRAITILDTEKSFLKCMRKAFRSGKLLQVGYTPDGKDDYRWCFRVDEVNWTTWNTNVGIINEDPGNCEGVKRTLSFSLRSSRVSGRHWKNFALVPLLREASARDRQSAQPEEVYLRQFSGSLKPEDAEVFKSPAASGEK
Method: (§1) The Calcium Flux Test is performed in the following manner: Recombinant HEK293 cells expressing human vanilloid receptor-1 (TRPV-1; accession number AF196175, EMD Millipore, Billerica, Mass.) are grown in D-MEM/F-12 media (Life Technologies, Grand Island, N.Y.) supplemented with 10% fetal bovine serum, 1% non essential amino acids and 400 μg/mL Geneticin (Gibco, Life Technologies). Cells are plated at a concentration of 15,000 cells per well on poly-D-lysine-coated 384 well plates and incubated overnight at 5% CO2 and 37° C. After incubation, culture media is removed from the wells and replaced with 50 μL per well of Fluo-8 No Wash dye solution (#36315, AAT Bioquest, Sunnyvale, Calif.). The Fluo-8 dye solution is prepared by mixing 20 uL of Fluo-8 NW with 30 mL of 0.33× Pluronic® F127 Plus (BASF of Ludwigshafen, Germany) in assay buffer (1×HBSS+2% of HEPES). Fluo-8 dye is incubated for 30 minutes at room temperature. Intracellular calcium (Ca^2+) flux is monitored upon exposure to aromatic alcohol in DMSO vehicle by measuring fluorescence intensity at Ex/Em 490/525 on a Functional Drug Screening System (FDSS; Hamamatsu, […]). Measurements are taken every second for a period of 4 minutes. […] Statistical differences are obtained using One Way ANOVA with Tukey Post-hoc test; statistical significance is defined as P≦0.05.
(§2) Phenoxyethanol was tested at a series of concentrations in DMSO for activity as a TRPV-1 agonist according to the Calcium Flux Test described above. Capsaicin was used as a positive control.
(§3) Maximum RFU values for treatment with phenoxyethanol or capsaisin were compared to the Maximum RFU for a DMSO vehicle alone. Concentrations of phenoxyethanol and capsaicin are reported in milimolar (mM) and nanomolar (nM), respectively.
(§4) Benzyl alcohol and sodium bicarbonate were tested using the Calcium Flux Test.
(§5) Benzyl alcohol and phenethyl alcohol were tested at a series of concentrations in DMSO for activity as a TRPV-1 agonist as described in Example 1. Concentrations of benzyl alcohol and phenethyl alcohol are reported in units of % w/v.

[2] = molecular target: T1, human vanilloid receptor-1 (TRPV-1)
Method: as §1, §2, §3, §4, §5

[3] = molecular target: T1, human vanilloid receptor-1 (TRPV-1); design: key: **: statistically significant; n/s: not statistically significant
Method: as §1, §2, §3, §4, §5

OCCOc1ccccc1 [Phenoxyethanol, 2-phenoxy-1-ethanol]
P < 0.05 Compared to Vehicle ([1]; phenoxyethanol 0.5 mM): n/s
P < 0.05 Compared to Vehicle ([1]; phenoxyethanol 0.75 mM): n/s
P < 0.05 Compared to Vehicle ([1]; phenoxyethanol 1 mM): **
P < 0.05 Compared to Vehicle ([1]; phenoxyethanol 1.5 mM): **
P < 0.05 Compared to Vehicle ([1]; phenoxyethanol 2 mM): **
P < 0.05 Compared to Vehicle ([1]; phenoxyethanol 2.5 mM): **
P < 0.05 Compared to Vehicle ([1]; phenoxyethanol 3 mM): **
P < 0.05 Compared to Vehicle ([1]; phenoxyethanol 3.5 mM): **
P < 0.05 Compared to Vehicle ([1]; phenoxyethanol 4 mM): **
increase in Maximum RFU values compared to the vehicle alone [2]: thirty to forty-fold
intracellular calcium flux in TRPV-1-transfected HEK cells (result in words) [2]: dose dependent increases
Maximum RFU (mean ± SD) ([2]; phenoxyethanol 0.5 mM alone): 96.96 ± 61.20 RFU
Maximum RFU (mean ± SD) ([2]; phenoxyethanol 0.75 mM alone): 124.81 ± 37.58 RFU
Maximum RFU (mean ± SD) ([2]; phenoxyethanol 1 mM alone): 200.28 ± 76.93 RFU
Maximum RFU (mean ± SD) ([2]; phenoxyethanol 1.5 mM alone): 304.41 ± 70.10 RFU
Maximum RFU (mean ± SD) ([2]; phenoxyethanol 2.5 mM alone): 363.73 ± 44.11 RFU
Maximum RFU (mean ± SD) ([2]; phenoxyethanol 3 mM alone): 401.68 ± 26.58 RFU and 441.76 ± 36.68 RFU and 224.26 ± 42.60 RFU and 257.93 RFU
Maximum RFU (mean ± SD) ([2]; phenoxyethanol 3.5 mM alone): 404.21 ± 42.32 RFU
Maximum RFU (mean ± SD) ([2]; phenoxyethanol 4 mM alone): 453.25 ± 34.18 RFU

COc1cc(CNC(=O)CCCC/C=C/C(C)C)ccc1O [Capsaicin, capsaicin]
P < 0.05 Compared to Vehicle ([3]; capsaicin 0.0381 nM): n/s
P < 0.05 Compared to Vehicle ([3]; capsaicin 0.1526 nM): n/s
P < 0.05 Compared to Vehicle ([3]; capsaicin 0.6104 nM): **
P < 0.05 Compared to Vehicle ([3]; capsaicin 2 nM): **
P < 0.05 Compared to Vehicle ([3]; capsaicin 10 nM): **
P < 0.05 Compared to Vehicle ([3]; capsaicin 39 nM): **
P < 0.05 Compared to Vehicle ([3]; capsaicin 156 nM): **
P < 0.05 Compared to Vehicle ([3]; capsaicin 625 nM): **
P < 0.05 Compared to Vehicle ([3]; capsaicin 2500 nM): **
P < 0.05 Compared to Vehicle ([3]; capsaicin 10000 nM): **
intracellular calcium flux in TRPV-1-transfected HEK cells (result in words) [2]: dose dependent increases
Maximum RFU (mean ± SD) ([2]; capsaicin 0.0381 nM alone): 10.19 ± 2.94 RFU
Maximum RFU (mean ± SD) ([2]; capsaicin 0.1526 nM alone): 29.34 ± 8.18 RFU
Maximum RFU (mean ± SD) ([2]; capsaicin 0.6104 nM alone): 121.32 ± 46.41 RFU
Maximum RFU (mean ± SD) ([2]; capsaicin 2 nM alone): 253.47 ± 24.63 RFU
Maximum RFU (mean ± SD) ([2]; capsaicin 10 nM alone): 348.17 ± 5.56 RFU
Maximum RFU (mean ± SD) ([2]; capsaicin 39 nM alone): 405.53 ± 11.25 RFU
Maximum RFU (mean ± SD) ([2]; capsaicin 100 nM alone (0 antagonist)): 647.05 ± 33.18 RFU and 849.62 ± 7.02 RFU and 1006.91 ± 74.51 RFU
Maximum RFU (mean ± SD) ([2]; capsaicin 156 nM alone): 491.07 ± 21.10 RFU
Maximum RFU (mean ± SD) ([2]; capsaicin 300 nM alone (0 nM antagonist)): 860.95 ± 33.14 RFU and 875.05 ± 55.11 RFU
Maximum RFU (mean ± SD) ([2]; capsaicin 625 nM alone): 604.13 ± 32.46 RFU
Maximum RFU (mean ± SD) ([2]; capsaicin 2500 nM alone): 617.87 ± 34.14 RFU
Maximum RFU (mean ± SD) ([2]; capsaicin 10000 nM alone): 698.83 ± 30.57 RFU

OCc1ccccc1 [Benzyl Alcohol, benzyl alcohol]
P < 0.05 Compared to Vehicle ([1]; benzyl alcohol 0.25 mM): n/s
P < 0.05 Compared to Vehicle ([1]; benzyl alcohol 0.5 mM): n/s
P < 0.05 Compared to Vehicle ([1]; benzyl alcohol 1 mM): n/s
P < 0.05 Compared to Vehicle ([1]; benzyl alcohol 2 mM): n/s
P < 0.05 Compared to Vehicle ([1]; benzyl alcohol 4 mM): **
intracellular calcium flux in TRPV-1-transfected HEK cells (result in words) [2]: dose dependent increases
Maximum RFU ([2]; benzyl alcohol 0.000161 % w/v alone (no antagonist)): 10.95 ± 0.23 RFU and 8.44 RFU and 16.17 ± 1.16 RFU
Maximum RFU (mean ± SD) ([2]; benzyl alcohol 0.25 mM (Example 7)): 64.45 ± 28.15 RFU
Maximum RFU (mean ± SD) ([2]; benzyl alcohol 0.5 mM (Example 7)): 104.45 ± 12.50 RFU
Maximum RFU (mean ± SD) ([2]; benzyl alcohol 1 mM (Example 7)): 113.51 ± 4.70 RFU
Maximum RFU (mean ± SD) ([2]; benzyl alcohol 2 mM (Example 7)): 135.45 ± 12.15 RFU
Maximum RFU (mean ± SD) ([2]; benzyl alcohol 4 mM (Example 7)): 362.51 ± 126.09 RFU
Maximum RFU ([2]; benzyl alcohol 0.004357 % w/v alone (no antagonist)): 43.91 ± 3.74 RFU and 31.54 RFU and 55.75 ± 2.68 RFU
Maximum RFU ([2]; benzyl alcohol 0.013072 % w/v alone (no antagonist)): 160.8 ± 12.61 RFU and 93.35 RFU and 124.54 ± 13.18 RFU
Maximum RFU ([2]; benzyl alcohol 0.04 % w/v alone (no antagonist)): 608.23 ± 10.21 RFU and 410.41 RFU and 424.01 ± 2.92 RFU
Maximum RFU ([2]; benzyl alcohol 6.64E−07 % w/v alone (no antagonist)): 9.37 ± 1.66 RFU and 7.66 RFU and 13.85 ± 1.83 RFU
activity for TRPV-1 activation (result in words) ([2]; doses of 2 mM and below, Example 7): did not show statistically significant activity
